Earlier results in patent US20220280463A1, “PHARMACEUTICAL FORMULATIONS COMPRISING DICLOFENAC” (FTF PHARMA PRIVATE LIMITED, priority 2019, published 2022).

Test system: erythrocytes
Details: aqueous solution of 2% propylene glycol, in 45 min

In the case of `CC(O)CO` (stereo not shown) [propylene glycol], the haemolysis of erythrocytes is listed as 100%.
